Data set [1] in a line: Methionine pellet pH test. Format: physicochemical. The note with it: 2 hours at 39° C. As to the method:
The pellets were then incubated in a pH 2.0 buffer and a pH 7.0 buffer for 2 hours at 39° C. For comparison, pellets consisting of methionine were also incubated in the buffer solutions. The results are shown in FIG. 10 and in Table 26 below.

A short description of data set [2]: Particle size distribution of histidine hydrochloride monohydrate crystals by sieving. Format: physicochemical. The source says:
Histidine hydrochloride monohydrate crystals were sieved on Ro Tap equipment using a stack of US Mesh sieves to obtain a fraction ranging from 850 microns (20 US Mesh) to 250 microns (60 US Mesh) particle size. The fraction was chosen to remove very fine particles, which present a challenge to optimal microencapsulation.

Structures are written as SMILES.

Consider `CSCC[C@H](N)C(=O)O` [Met Reference Standard (99.9% purity)], for which the “wt % Release” value in data set [1] (0.01M Acid Buffer, pH 2.00) stood at 99 wt %; in data set [1] (0.05M Phosphate Buffer, pH 7.00), 99 wt %.

Consider `Cl.N[C@@H](Cc1cnc[nH]1)C(=O)O.O`, for which the “Difference” value in data set [2] (Pan, opening size <106 micron) was determined as 7.41 g; in data set [2] (retained on US mesh sieve #20, opening size 850 micron) it was 2.60 g; in data set [2] (retained on US mesh sieve #40, opening size 425 micron), 34.87 g; in data set [2] (retained on US mesh sieve #60, opening size 250 micron), 33.99 g; in data set [2] (retained on US mesh sieve #80, opening size 180 micron) it was 11.88 g; in data set [2] (retained on US mesh sieve #100, opening size 150 micron), 5.35 g. Also, the “Difference” value in data set [2] (retained on US mesh sieve #140, opening size 106 micron) was 4.09 g. Further, the “Final (wt % of total output)” value in data set [2] (Pan, opening size <106 micron) is given as 7.4 wt % of total output; in data set [2] (US mesh sieve #20, opening size 850 micron), 2.6 wt % of total output; in data set [2] (US mesh sieve #40, opening size 425 micron) it was 34.8 wt % of total output; in data set [2] (US mesh sieve #60, opening size 250 micron) it was 33.9 wt % of total output; in data set [2] (US mesh sieve #80, opening size 180 micron), 11.9 wt % of total output; in data set [2] (US mesh sieve #100, opening size 150 micron), 5.3 wt % of total output. The “Final (wt % of total output)” value in data set [2] (US mesh sieve #140, opening size 106 micron) is given as 4.1 wt % of total output.

The record behind these values is patent US20240226045A9, “RUMEN-PROTECTED COMPOSITIONS AND METHODS OF MAKING THE SAME” (Balchem Corporation, priority 2022, published 2024).
